Assay results published in US9486455B2, “Compounds for modulating TRPV3 function” (HYDRA BIOSCIENCES, INC., priority 2007, dated 2016).
Where two headings read alike, the source gives them in different places.

Key:
hERG [1] = target: T1, hERG (Homo sapiens, UniProt Q12809); experiment: in vitro
Protocol: (§4) Compounds of interest can be tested against these channels at concentrations up to 30 μM, and the resulting data can be used to estimate IC50 for inhibition of the activity of these other ion channels.

human (h) TRPV3 = target: T2, human (h) TRPV3 (Homo sapiens, UniProt Q8NET8); experiment: Whole-cell patch clamp, human TRPV3-mediated currents; assay type: cell-based;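 further: compounds tested at concentrations up to 30 µM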
T2 construct: expressed in transfected cells; host or cells: HEK293/TREx, tetracycline-induced
T2 sequence (Q8NET8 1-790): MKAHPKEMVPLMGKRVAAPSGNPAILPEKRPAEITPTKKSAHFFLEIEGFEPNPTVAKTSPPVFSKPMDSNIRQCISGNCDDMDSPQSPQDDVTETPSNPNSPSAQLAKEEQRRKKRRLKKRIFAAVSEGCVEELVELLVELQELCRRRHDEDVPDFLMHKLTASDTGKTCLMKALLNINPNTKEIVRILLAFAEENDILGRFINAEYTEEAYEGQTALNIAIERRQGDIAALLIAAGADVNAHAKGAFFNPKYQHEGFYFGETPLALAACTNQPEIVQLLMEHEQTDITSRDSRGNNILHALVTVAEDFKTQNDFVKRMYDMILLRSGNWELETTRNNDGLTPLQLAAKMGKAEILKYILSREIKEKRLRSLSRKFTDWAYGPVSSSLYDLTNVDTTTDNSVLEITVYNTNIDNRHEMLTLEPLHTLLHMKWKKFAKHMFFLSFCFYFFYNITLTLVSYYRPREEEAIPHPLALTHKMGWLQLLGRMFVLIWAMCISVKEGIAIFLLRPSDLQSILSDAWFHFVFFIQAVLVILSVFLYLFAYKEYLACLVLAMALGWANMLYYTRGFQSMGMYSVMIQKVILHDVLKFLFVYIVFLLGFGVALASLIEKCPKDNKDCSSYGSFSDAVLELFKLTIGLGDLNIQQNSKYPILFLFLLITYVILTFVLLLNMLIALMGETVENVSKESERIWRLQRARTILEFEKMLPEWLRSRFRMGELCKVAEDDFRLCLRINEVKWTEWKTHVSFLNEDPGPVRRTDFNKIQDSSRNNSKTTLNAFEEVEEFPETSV
Excerpt: (§1) Whole-cell patch clamp experiments permit the detection of currents through the TRPV3 channel in the cell line described above. A glass electrode is brought into contact with a single cell and the membrane is then ruptured, permitting control of the voltage of the cell membrane and measurement of currents flowing across the membrane using the amplifier attached to the electrode. A perfusion system permits control of the extracellular solution, including the addition of blockers and activators of the current. The current can be activated by heating this solution to 28° C. or warmer or by addition of 20 μM 2-APB to the solution.
(§2) TRPV3 cells were induced 20-48 hours, removed from growth plates, and replated at low density (to attain good single-cell physical separation) on glass coverslips for measurement. In some cases, cells were grown in low density overnight on glass coverslips. Patch clamp recordings were made in the whole-cell mode with a holding potential of −40 mV. Every 5 seconds, a voltage ramp was applied from −120 to +100 mV, 400 ms in duration. Currents elicited were quantified at −80 mV and +80 mV. The internal solution consisted of 140 mM cesium aspartate, 10 mM EGTA, 2.27 mM MgCl2, 1.91 mM CaCl2 and 10 mM HEPES, pH to 7.2 with KOH; with 50 nM calculated free Ca^2+. External solution was Ringer's solution described above. Upon addition of 2-APB or upon heating of the extracellular solution as described above, TRPV3 current was induced only in TRPV3-expressing cells and not in parental HEK293 TREx cells. […] Removal of the stimulus caused most of the current to go away, and inhibitor addition could still inhibit this current. […]
(§3) P1 refers to the Phase 1 current for human (h) and rat (r) TRPV3, and P2 refers to the Phase 2 current for human (h) and rat (r) TRPV3.

rat (r) TRPV3 = target: T3, rat (r) TRPV3 (Rattus norvegicus, UniProt Q4QYD9); experiment: Whole-cell patch clamp, rat TRPV3-mediated currents; assay type: cell-based;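 further: compounds tested at concentrations up to 30 µM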
T3 construct: expressed in transfected cells
T3 sequence (Q4QYD9 1-791): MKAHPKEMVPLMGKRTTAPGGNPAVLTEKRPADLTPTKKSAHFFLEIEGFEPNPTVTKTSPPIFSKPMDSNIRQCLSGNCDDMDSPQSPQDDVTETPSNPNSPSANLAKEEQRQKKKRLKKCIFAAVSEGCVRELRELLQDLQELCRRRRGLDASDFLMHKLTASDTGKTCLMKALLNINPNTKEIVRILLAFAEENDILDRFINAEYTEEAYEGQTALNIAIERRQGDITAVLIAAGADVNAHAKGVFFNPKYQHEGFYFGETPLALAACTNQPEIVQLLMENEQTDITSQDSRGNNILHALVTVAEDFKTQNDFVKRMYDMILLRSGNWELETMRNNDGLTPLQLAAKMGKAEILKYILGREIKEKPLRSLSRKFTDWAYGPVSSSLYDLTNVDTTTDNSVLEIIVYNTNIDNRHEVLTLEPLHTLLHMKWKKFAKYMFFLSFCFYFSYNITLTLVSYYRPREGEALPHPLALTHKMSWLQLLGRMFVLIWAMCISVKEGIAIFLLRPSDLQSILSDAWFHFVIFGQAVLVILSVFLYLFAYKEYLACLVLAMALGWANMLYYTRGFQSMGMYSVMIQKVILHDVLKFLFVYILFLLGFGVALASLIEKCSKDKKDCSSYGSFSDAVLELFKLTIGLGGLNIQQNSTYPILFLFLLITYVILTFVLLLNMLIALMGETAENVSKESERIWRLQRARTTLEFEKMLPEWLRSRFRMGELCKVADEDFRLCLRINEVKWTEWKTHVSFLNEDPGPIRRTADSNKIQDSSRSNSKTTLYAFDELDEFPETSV
Excerpt: as §1, §2, §3

hERG [2] = target: T1, hERG; experiment: Ion channel selectivity, hERG channel current
Protocol: as §4

TRPV3 channel = target: T4, TRPV3 channel (Homo sapiens, UniProt Q8NET8); experiment: High-throughput screening assay: Ca2+ rise after 2-APB activation in HEK293/TREx cells inducibly expressing TRPV3; assay type: cell-based; settings: read-out: IC50 for inhibition of TRPV3 activity; Ca2+ flux, Fura-2, 150 μM 2-APB
T4 construct: expressed in transfected cells; host or cells: HEK293/TREx (Invitrogen), tetracycline-induced
T4 sequence (Q8NET8 1-790): T2 sequence (Q8NET8 1-790)
Excerpt: The assay depends on detection of the rise in intracellular Ca^2+ concentration ([Ca^2+]i) following channel activation in cells inducibly expressing the TRPV3 channel. Ca^2+ rise is quantified with the use of fluorescent Ca^2+ indicators that are loaded into cells and thereafter indicated the [Ca^2+]i. Ca^2+ influx follows activation of the TRPV3 channel. Compounds inhibiting this [Ca^2+]i rise are considered hits for further investigation.
The commercially available HEK293/TREx line (Invitrogen) was stably transfected with a TRPV3 construct and screened by immunostaining to find clones with TRPV3 expression following stimulation with 1 μg/ml tetracycline. Clonal TRPV3-expressing cells were maintained in the growth medium recommended by the manufacturer supplemented with 100 μg/ml hygromycin to promote retention of the TRPV3 construct. After growing to near confluency, cells are plated at a density of ˜25,000 cells/well in 384 well plates in the presence of 1 μg/ml tetracycline, and allowed to grow for 20-30 hrs. A nearly confluent monolayer results. […] These controls defined a screening window, and “hits” were defined as those test compounds inhibiting the fluorescence response by at least 40%.

[3] = Phase 1 inward current, read-out: P1 In (h)
[4] = Phase 1 outward current, read-out: P1 Out (h)
[5] = Phase 2 inward current, read-out: P2 In (h)
[6] = Phase 2 outward current, read-out: P2 Out (h)
[7] = Phase 1 inward current, read-out: P1 In (r)
[8] = Phase 1 outward current, read-out: P1 Out (r)
[9] = Phase 2 inward current, read-out: P2 In (r)
[10] = Phase 2 outward current, read-out: P2 Out (r)

T1 sequence (Q12809 whole entry): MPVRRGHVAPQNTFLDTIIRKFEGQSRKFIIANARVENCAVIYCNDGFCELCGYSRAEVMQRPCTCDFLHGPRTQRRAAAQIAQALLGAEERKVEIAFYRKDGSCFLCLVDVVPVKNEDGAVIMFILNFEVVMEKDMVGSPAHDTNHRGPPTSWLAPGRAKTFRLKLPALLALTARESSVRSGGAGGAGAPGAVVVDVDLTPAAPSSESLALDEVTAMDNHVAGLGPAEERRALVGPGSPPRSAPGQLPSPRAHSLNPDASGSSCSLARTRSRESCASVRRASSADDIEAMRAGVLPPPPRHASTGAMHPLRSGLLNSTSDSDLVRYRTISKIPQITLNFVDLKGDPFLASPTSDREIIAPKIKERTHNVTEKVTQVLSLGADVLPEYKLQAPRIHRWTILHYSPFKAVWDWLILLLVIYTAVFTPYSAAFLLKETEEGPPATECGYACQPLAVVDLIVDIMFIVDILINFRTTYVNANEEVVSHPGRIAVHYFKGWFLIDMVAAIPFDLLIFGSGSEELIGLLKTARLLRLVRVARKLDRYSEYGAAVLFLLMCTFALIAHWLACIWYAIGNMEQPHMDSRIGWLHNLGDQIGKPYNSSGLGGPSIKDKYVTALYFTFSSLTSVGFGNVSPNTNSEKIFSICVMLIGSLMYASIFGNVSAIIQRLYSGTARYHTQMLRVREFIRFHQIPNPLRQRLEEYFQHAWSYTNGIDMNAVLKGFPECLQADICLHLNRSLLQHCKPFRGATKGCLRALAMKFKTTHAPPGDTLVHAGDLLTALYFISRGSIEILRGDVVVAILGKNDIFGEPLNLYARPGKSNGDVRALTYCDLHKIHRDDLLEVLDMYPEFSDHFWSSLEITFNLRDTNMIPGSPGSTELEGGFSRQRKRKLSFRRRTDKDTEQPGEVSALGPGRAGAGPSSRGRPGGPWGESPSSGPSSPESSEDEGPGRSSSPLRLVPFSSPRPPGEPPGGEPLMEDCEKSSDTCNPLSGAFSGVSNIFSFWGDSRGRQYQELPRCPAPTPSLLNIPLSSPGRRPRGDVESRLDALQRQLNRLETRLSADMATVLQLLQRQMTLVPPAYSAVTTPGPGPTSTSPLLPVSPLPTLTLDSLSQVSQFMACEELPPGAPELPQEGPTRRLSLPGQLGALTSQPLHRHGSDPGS

IC50 (human (h) TRPV3; [3])	IC50 (human (h) TRPV3; [4])	IC50 (human (h) TRPV3; [5])	IC50 (human (h) TRPV3; [6])	IC50 (rat (r) TRPV3; [7])	IC50 (rat (r) TRPV3; [8])	Structure (SMILES)	IC50 (hERG [1])	IC50 (rat (r) TRPV3; [9])	IC50 (rat (r) TRPV3; [10])	IC50 (hERG [2])	IC50 (TRPV3 channel)
≤ 500 nM	≤ 500 nM	≤ 500 nM	≤ 500 nM	≤ 500 nM	≤ 500 nM	CCOc1cccc(C=Cc2nc3ccccc3c(=O)n2-c2c(C)cccc2C)c1O [Compound 49]		≤ 500 nM	≤ 500 nM	≥ 20000 nM	
		≤ 500 nM	≤ 500 nM	≤ 500 nM	≤ 500 nM	COc1cccc(C=Cc2nc3cnccc3c(=O)n2-c2c(C)cccc2C)c1O [Compound 8]		≤ 500 nM	≤ 500 nM	≥ 20000 nM	
						Cc1cccc(C)c1-n1c(/C=C/c2cccc3cn[nH]c23)nc2ccccc2c1=O [Compound 40]					< 5000 nM
≤ 500 nM	≤ 500 nM	≤ 500 nM	≤ 500 nM	≤ 500 nM	≤ 500 nM	CCOc1cccc(/C=C/c2nc3cnccc3c(=O)n2-c2c(C)cccc2C)c1O [Compound 11]				≥ 20000 nM	
≤ 500 nM	≤ 500 nM	≤ 500 nM	≤ 500 nM	≤ 500 nM	≤ 500 nM	Cc1cccc(C)c1-n1c(/C=C/c2cccc(OC(F)(F)F)c2O)nc2ccccc2c1=O [Compound 55]				≥ 20000 nM	
≤ 500 nM	≤ 500 nM	≤ 500 nM	≤ 500 nM	≤ 500 nM	≤ 500 nM	CCc1cccc(CC)c1-n1c(/C=C/c2cccc(OC)c2O)nc2ccccc2c1=O [Compound 50]		≤ 500 nM	≤ 500 nM	≥ 20000 nM	

Structure (SMILES)	IC50 (human (h) TRPV3; [3])	IC50 (human (h) TRPV3; [4])	IC50 (human (h) TRPV3; [5])	IC50 (human (h) TRPV3; [6])	IC50 (rat (r) TRPV3; [7])	IC50 (rat (r) TRPV3; [8])	IC50 (hERG [1])	IC50 (rat (r) TRPV3; [9])	IC50 (rat (r) TRPV3; [10])	IC50 (hERG [2])	IC50 (TRPV3 channel)
COc1nccc(/C=C/c2nc3ccccc3c(=O)n2-c2c(C)cccc2C)c1O [Compound 37]	≤ 500 nM	≤ 500 nM	≤ 500 nM	≤ 500 nM	≤ 500 nM	≤ 500 nM	≥ 20000 nM	≤ 500 nM	≤ 500 nM		
COc1cccc(/C=C/c2nc3ccccc3c(=O)n2-c2c(C)cncc2C)c1O [Compound 33]	≤ 500 nM	≤ 500 nM	≤ 500 nM	≤ 5000 nM	≤ 500 nM	≤ 500 nM		≤ 500 nM	≤ 500 nM		
CCOc1nccc(/C=C/c2nc3ccccc3c(=O)n2-c2ccccc2C)c1O [Compound 43]	≤ 500 nM	≤ 500 nM	≤ 500 nM	≤ 500 nM	≤ 500 nM	≤ 500 nM		≤ 500 nM	≤ 500 nM		
